From publication PMC6470533, “Structure–Activity Study, Characterization, and Mechanism of Action of an Antimicrobial Peptoid D2 and Its D- and L-Peptide Analogues” (Molecules, 2019)
Values after ≈ are worked out from the molar mass of the structure shown. Non-standard residues stand in square brackets, D forms with d. Residues, ends and D or L forms follow the SMILES beside them. N(1-naphthylmethyl)Gly = O=C(O)CNCc1cccc2ccccc12; d1Nal = N[C@H](Cc1cccc2ccccc12)C(=O)O; N(4-MeBn)Gly = Cc1ccc(CNCC(=O)O)cc1; Gly(N-CH2CH2OH) = O=C(O)CNCCO; dNle = CCCC[C@@H](N)C(=O)O; NBuGly = CCCCNCC(=O)O; Nlys = NCCCCNCC(=O)O; Sar = CNCC(=O)O

Experiments:
[1] = system: Methicillin sensitive Staphylococcus pseudintermedius (26916); assay type: cell-based; conditions: 18 h
[2] = system: Methicillin resistant Staphylococcus pseudintermedius, (C22963); assay type: cell-based; conditions: 18 h
[3] = system: Staphylococcus aureus (ATCC 29213); assay type: cell-based; conditions: ATCC 29213, 18 h
[4] = system: Pseudomonas aeruginosa (ATCC 27853); assay type: cell-based; conditions: ATCC 27853, 18 h
Experimental: To explore the antimicrobial activity of the library of peptides and peptidomimetics, they were tested against Acinetobacter baumannii, Corynebacterium auriscanis, Escherichia coli, Enterococcus faecalis, Enterococcus faecium, Klebsiella pneumonia, Proteus mirabilis, and Pseudomonas aeruginosa. Bacteria grown on agar plates for 18 h at 37 °C were diluted to ~1 × 10^8 CFU/mL in Mueller–Hinton broth (MHB). Two-fold serial dilutions of peptides and peptidomimetics in MHB II were inoculated with bacteria to achieve a final concentration of 5 × 10^5 CFU/mL in polypropylene 96 U-well microtiter plates (Almeco, Esbjerg, Denmark), followed by incubation at 37 °C in ambient air for 18 h. The MIC values were determined as the lowest concentration showing no visible bacterial growth. Experiments were performed twice (in technical triplicates) on two different days.

[5] = system: red blood cell (RBC); conditions: 0.5% RBC suspension in PBS, 1 h, 37 °C, read at 414 nm, normalized to mellitin and PBS, triplicates
Experimental: Briefly, 75 µL of peptide in PBS was mixed with 75 µL of a 0.5% red blood cell (RBC) suspension in PBS, and incubated for 1 h at 37 °C. The hemoglobin release was then measured at 414 nm and normalized, using mellitin as positive control and PBS as negative control. Experiments were done in triplicates.

| Structure (SMILES) | MIC MSSP [1] | MIC MRSP [2] | MIC SA [3] | MIC PA [4] | HA, percentage of hemolysis at 150 µM [5] |
| --- | --- | --- | --- | --- | --- |
| CCCCN(CC(N)=O)C(=O)CNC(=O)CN(Cc1cccc2ccccc12)C(=O)CN(CCCCN)C(=O)CN(Cc1ccc(C)cc1)C(=O)CN(Cc1cccc2ccccc12)C(=O)CN(CCCCN)C(=O)CNCCCCN [compound 7] (H-[Nlys][Nlys][N(1-naphthylmethyl)Gly][N(4-MeBn)Gly][Nlys][N(1-naphthylmethyl)Gly]G[NBuGly]-NH2; N-terminus assumed) | 8 µg/mL (≈ 7.1 µM) | 4 µg/mL (≈ 3.55 µM) | 16 µg/mL (≈ 14.2 µM) | 16 µg/mL (≈ 14.2 µM) | 85% |
| CCCCN(CC(N)=O)C(=O)CN(CCCCN)C(=O)CN(Cc1cccc2ccccc12)C(=O)CNC(=O)CN(Cc1ccc(C)cc1)C(=O)CN(Cc1cccc2ccccc12)C(=O)CN(CCCCN)C(=O)CNCCCCN [compound 5] (H-[Nlys][Nlys][N(1-naphthylmethyl)Gly][N(4-MeBn)Gly]G[N(1-naphthylmethyl)Gly][Nlys][NBuGly]-NH2; N-terminus assumed) | 4 µg/mL (≈ 3.55 µM) | 4 µg/mL (≈ 3.55 µM) | 32 µg/mL (≈ 28.4 µM) | 16 µg/mL (≈ 14.2 µM) | 25% |
| CCCCN(CC(N)=O)C(=O)CN(CCCCN)C(=O)CNC(=O)CN(CCCCN)C(=O)CN(Cc1ccc(C)cc1)C(=O)CN(Cc1cccc2ccccc12)C(=O)CN(CCCCN)C(=O)CNCCCCN [compound 6] (H-[Nlys][Nlys][N(1-naphthylmethyl)Gly][N(4-MeBn)Gly][Nlys]G[Nlys][NBuGly]-NH2; N-terminus assumed) | >64 µg/mL | >64 µg/mL | >64 µg/mL | >64 µg/mL | 6% |
| CCCCN(CC(N)=O)C(=O)[C@@H](CCCCN)NC(=O)CN(Cc1cccc2ccccc12)C(=O)[C@@H](CCCCN)NC(=O)CN(Cc1ccc(C)cc1)C(=O)CN(Cc1cccc2ccccc12)C(=O)[C@@H](CCCCN)NC(=O)[C@H](N)CCCCN [compound 16] (H-[dK][dK][N(1-naphthylmethyl)Gly][N(4-MeBn)Gly][dK][N(1-naphthylmethyl)Gly][dK][NBuGly]-NH2; N-terminus assumed) | 4 µg/mL (≈ 3.34 µM) | 4 µg/mL (≈ 3.34 µM) | 16 µg/mL (≈ 13.3 µM) | 64 µg/mL (≈ 53.4 µM) |  |
| CCCCN(CC(N)=O)C(=O)CN(CCCCN)C(=O)CN(Cc1cccc2ccccc12)C(=O)CN(CCCCN)C(=O)CN(Cc1ccc(C)cc1)C(=O)CN(Cc1cccc2ccccc12)C(=O)CNC(=O)CNCCCCN [compound 2] (H-[Nlys]G[N(1-naphthylmethyl)Gly][N(4-MeBn)Gly][Nlys][N(1-naphthylmethyl)Gly][Nlys][NBuGly]-NH2; N-terminus assumed) | 16 µg/mL (≈ 14.2 µM) | 8 µg/mL (≈ 7.1 µM) | 16 µg/mL (≈ 14.2 µM) | 64 µg/mL (≈ 56.8 µM) | 48% |
| CCCCN(CC(N)=O)C(=O)CN(CCCCN)C(=O)CN(Cc1cccc2ccccc12)C(=O)CN(Cc1ccc(C)cc1)C(=O)CN(Cc1ccc(C)cc1)C(=O)CN(Cc1cccc2ccccc12)C(=O)CN(CCCCN)C(=O)CNCCCCN [compound 10] (H-[Nlys][Nlys][N(1-naphthylmethyl)Gly][N(4-MeBn)Gly][N(4-MeBn)Gly][N(1-naphthylmethyl)Gly][Nlys][NBuGly]-NH2; N-terminus assumed) | 8 µg/mL (≈ 6.5 µM) | 8 µg/mL (≈ 6.5 µM) | 8 µg/mL (≈ 6.5 µM) | 16 µg/mL (≈ 13 µM) | 69% |
| CCCCN(CC(N)=O)C(=O)CN(CCCCN)C(=O)CN(Cc1cccc2ccccc12)C(=O)CN(CCCCN)C(=O)CN(Cc1ccc(C)cc1)C(=O)CNC(=O)CN(CCCCN)C(=O)CNCCCCN [compound 3] (H-[Nlys][Nlys]G[N(4-MeBn)Gly][Nlys][N(1-naphthylmethyl)Gly][Nlys][NBuGly]-NH2; N-terminus assumed) | 64 µg/mL (≈ 60.5 µM) | 64 µg/mL (≈ 60.5 µM) | >64 µg/mL | >64 µg/mL | 56% |
| CCCC[C@@H](NC(=O)CN(CCCCN)C(=O)[C@@H](Cc1cccc2ccccc12)NC(=O)CN(CCCCN)C(=O)[C@@H](Cc1ccccc1)NC(=O)[C@@H](Cc1cccc2ccccc12)NC(=O)CN(CCCCN)C(=O)CNCCCCN)C(N)=O [compound 15] (H-[Nlys][Nlys][d1Nal][dF][Nlys][d1Nal][Nlys][dNle]-NH2; N-terminus assumed) | 4 µg/mL (≈ 3.38 µM) | 4 µg/mL (≈ 3.38 µM) | 32 µg/mL (≈ 27 µM) | >64 µg/mL |  |
| CCCC[C@@H](NC(=O)[C@@H](CCCCN)NC(=O)[C@@H](Cc1cccc2ccccc12)NC(=O)[C@@H](CCCCN)NC(=O)CN(Cc1ccc(C)cc1)C(=O)CN(Cc1cccc2ccccc12)C(=O)CN(CCCCN)C(=O)CNCCCCN)C(N)=O [compound 13] (H-[Nlys][Nlys][N(1-naphthylmethyl)Gly][N(4-MeBn)Gly][dK][d1Nal][dK][dNle]-NH2; N-terminus assumed) | 4 µg/mL (≈ 3.34 µM) | 4 µg/mL (≈ 3.34 µM) | 8 µg/mL (≈ 6.67 µM) | 8 µg/mL (≈ 6.67 µM) | 34% |
| CCCCN(CC(N)=O)C(=O)CN(CCCCN)C(=O)CN(Cc1cccc2ccccc12)C(=O)CN(Cc1cccc2ccccc12)C(=O)CN(Cc1ccc(C)cc1)C(=O)CN(Cc1cccc2ccccc12)C(=O)CN(CCCCN)C(=O)CNCCCCN [compound 11] (H-[Nlys][Nlys][N(1-naphthylmethyl)Gly][N(4-MeBn)Gly][N(1-naphthylmethyl)Gly][N(1-naphthylmethyl)Gly][Nlys][NBuGly]-NH2; N-terminus assumed) | 8 µg/mL (≈ 6.31 µM) | 8 µg/mL (≈ 6.31 µM) | 8 µg/mL (≈ 6.31 µM) | 16 µg/mL (≈ 12.6 µM) | 87% |
| CCCCN(CC(N)=O)C(=O)CN(CCCCN)C(=O)CN(Cc1cccc2ccccc12)C(=O)CN(CCCCN)C(=O)CN(Cc1ccc(C)cc1)C(=O)CN(Cc1cccc2ccccc12)C(=O)CN(CCCCN)C(=O)CN [compound 1] (H-G[Nlys][N(1-naphthylmethyl)Gly][N(4-MeBn)Gly][Nlys][N(1-naphthylmethyl)Gly][Nlys][NBuGly]-NH2; N-terminus assumed) | 4 µg/mL (≈ 3.55 µM) | 4 µg/mL (≈ 3.55 µM) | 16 µg/mL (≈ 14.2 µM) | 32 µg/mL (≈ 28.4 µM) | 42% |
| CCCCN(CC(N)=O)C(=O)CN(CCCCN)C(=O)CN(Cc1cccc2ccccc12)C(=O)CN(CCCCN)C(=O)[C@@H](Cc1ccccc1)NC(=O)[C@@H](Cc1cccc2ccccc12)NC(=O)[C@@H](CCCCN)NC(=O)[C@H](N)CCCCN [compound 14] (H-[dK][dK][d1Nal][dF][Nlys][N(1-naphthylmethyl)Gly][Nlys][NBuGly]-NH2; N-terminus assumed) | 4 µg/mL (≈ 3.38 µM) | 4 µg/mL (≈ 3.38 µM) | 16 µg/mL (≈ 13.5 µM) | 64 µg/mL (≈ 54 µM) |  |
| CCCCN(CC(N)=O)C(=O)CN(CCCCN)C(=O)CN(Cc1cccc2ccccc12)C(=O)CN(CCCCN)C(=O)CNC(=O)CN(Cc1cccc2ccccc12)C(=O)CN(CCCCN)C(=O)CNCCCCN [compound 4] (H-[Nlys][Nlys][N(1-naphthylmethyl)Gly]G[Nlys][N(1-naphthylmethyl)Gly][Nlys][NBuGly]-NH2; N-terminus assumed) | 64 µg/mL (≈ 58.5 µM) | 32 µg/mL (≈ 29.2 µM) | >64 µg/mL | >64 µg/mL | 40% |
| CCCCN(CC(N)=O)C(=O)CN(CCCCN)C(=O)CN(Cc1cccc2ccccc12)C(=O)CN(CCO)C(=O)CN(Cc1ccc(C)cc1)C(=O)CN(Cc1cccc2ccccc12)C(=O)CN(CCCCN)C(=O)CNCCCCN [compound 12] (H-[Nlys][Nlys][N(1-naphthylmethyl)Gly][N(4-MeBn)Gly][Gly(N-CH2CH2OH)][N(1-naphthylmethyl)Gly][Nlys][NBuGly]-NH2; N-terminus assumed) | 8 µg/mL (≈ 6.83 µM) | 8 µg/mL (≈ 6.83 µM) | 32 µg/mL (≈ 27.3 µM) | >64 µg/mL | 5% |
| CCCCN(CC(N)=O)C(=O)CN(CCCCN)C(=O)CN(Cc1cccc2ccccc12)C(=O)CN(C)C(=O)CN(Cc1ccc(C)cc1)C(=O)CN(Cc1cccc2ccccc12)C(=O)CN(CCCCN)C(=O)CNCCCCN [compound 9] (H-[Nlys][Nlys][N(1-naphthylmethyl)Gly][N(4-MeBn)Gly][Sar][N(1-naphthylmethyl)Gly][Nlys][NBuGly]-NH2; N-terminus assumed) | 4 µg/mL (≈ 3.5 µM) | 4 µg/mL (≈ 3.5 µM) | 16 µg/mL (≈ 14 µM) | 32 µg/mL (≈ 28 µM) | 16% |
